Data: PubChem BioAssay AID1963875 (Molecular Pharmacology Branch, DTP, NCI, 2024)

Tested on: KRAS-mutant PDC complex spheroid viability
Assay: Anticancer human tumor 186277-243-T-J2-PDC patient-derived colon adenocarcinoma cell line growth inhibition [KRAS2]
Details: for IC50: curve of first compound; for viability, T/C: stronger effect = lower value
From the text: Multicellular complex tumor spheroid response to RAS pathway inhibitors in combination with a targeted agents in patient-derived cell lines with oncogenic KRAS variants from multiple cancer types
A high-throughput screen of multi-cell type tumor spheroids was designed to identify active combinations of targeted small molecules and KRAS pathway inhibitors. Complex spheroids include a stromal component modeled by human endothelial cells (HUVEC) and fibroblasts modeled by human mesenchymal stem cells (MSCs). The concentration ranges selected for each drug and investigational agent were based upon clinically achievable concentrations if the clinical Cmax of the agent was known.
Compounds. The drugs and investigational agents: BI-3406 (NSC825286), BAY-293 (NSC824723), batoprotafib (TNO155; NSC825523), sotorasib (AMG 510; NSC818433), MRTX1257 (NSC819558), elimusertib (BAY 1895344; NSC800525), molibresib (GSK525762; NSC774829), temuterkib (LY3214996; NSC803410), venetoclax (NSC766270), alisertib (NSC759677), olaparib (NSC753686), talazoparib (NSC767125), erdafitinib (NSC781556), ipatasertib (NSC767898), cabozantinib (NSC761068), nintedanib (NSC756659), abemaciclib (NSC768073), docetaxel (NSC628503), trametinib (NSC758246), and sapanisertib (NSC764658) were obtained from the National Cancer Institute (NCI) Developmental Therapeutics Program Chemical Repository. The FDA-approved anticancer drug set is available from the Developmental Therapeutics Program. […] The stock solutions were prepared in dimethyl sulfoxide (DMSO, Sigma-Aldrich, St. Louis, MO, cat. D2650) at 800-fold the tested concentration and stored at -70 degrees C prior to their use. All drugs and investigational agents were tested over a range starting from a high concentration at or near the clinical Cmax and decreasing in half-log increments. If the clinical Cmax for an agent had not been determined, the highest concentration tested was 10 microM.
Cell Culture. All cells were maintained in an incubator at 37 degrees C and 5% CO2 with 95% humidity. The PDC lines were cultured according to standard operating procedures established by the NCI PDMR (https://pdmr.cancer.gov/sops/default.htm). Briefly, all PDCs were thawed and cultured in Matrigel-coated flasks prepared with a working solution of 1X Ham's F-12 nutrient mix, without supplementation (Invitrogen, Waltham, MA, cat. 11765054), 100 U/mL penicillin-streptomycin (Invitrogen, cat. 15140122), and 2.5% Matrigel (Corning Inc., Corning, NY, cat. 354248) for the first three passages. All PDCs were cultured in complete DMEM/F-12 media containing advanced DMEM/F-12 (Invitrogen, cat. 12634028), 4.9% defined fetal bovine serum, heat inactivated (HyClone Laboratories Inc., Logan, UT, cat. SH30070.03HI), 389 ng/mL hydrocortisone (Sigma-Aldrich, cat. H4001), 9.7 ng/mL human EGF recombinant protein (Invitrogen, cat. PHG0313), 23.4 microg/mL adenine (Sigma-Aldrich, cat. A2786), 97.3 U/mL penicillin-streptomycin (Invitrogen, cat. 15140122), 1.9 mM L-glutamine (Invitrogen, cat. 25030081), and 9.7 microM Y-27632 dihydrochloride (Tocris Bioscience, Bristol, United Kingdom, cat. 1254). The PDCs were cultured in complete DMEM/F12 media without 9.7 microM Y-27632 dihydrochloride for at least two passages prior to the screen. The established cell line HOP-62 was cultured in RPMI 1640 medium, HEPES (Invitrogen, cat. 22400105) with 10% defined fetal bovine serum (HyClone Laboratories Inc., cat. SH30070.03) and 2 mM L-glutamine (Invitrogen, cat. 25030081). The pooled donor HUVEC were cultured in endothelial cell growth medium 2 (PromoCell, Heidelberg, Germany, cat. C-22011) and the hMSC were cultured in mesenchymal stem cell growth medium 2 (PromoCell, cat. C-28009). For all experiments, HUVEC and hMSC were used at passages </=5, while the malignant cell lines were used at passages </=15. […]

[1] = second compound 0.1 µM, first compound 0.0316 µM
[2] = second compound 0.316 µM, first compound 0.0316 µM
[3] = second compound 1 µM, first compound 0.0316 µM
[4] = second compound 3.16 µM, first compound 0.0316 µM
[5] = second compound 10 µM, first compound 0.0316 µM
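Wherever viability, T/C is given: viability read after seven days of compound exposure; 100% = DMSO vehicle-treated spheroids so lower means less viable.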

CC(=O)Nc1cccc(-n2c(=O)n(C3CC3)c(=O)c3c(Nc4ccc(I)cc4F)n(C)c(=O)c(C)c32)c1 + C=CC(=O)N1CCN(c2nc(=O)n(-c3c(C)ccnc3C(C)C)c3nc(-c4c(O)cccc4F)c(F)cc23)C(C)C1
IC50 (second compound 0.1 µM): 0.625 nM | IC50 (second compound 0.316 µM): 0.659 nM | IC50 (second compound 1 µM): 0.583 nM | IC50 (second compound 3.16 µM): 0.444 nM | IC50 (second compound 10 µM): 0.11 nM | viability, T/C (second compound 0.1 µM, first compound 0.0001 µM): 99.2% | viability, T/C (second compound 0.1 µM, first compound 0.000316 µM): 96.3% | viability, T/C (second compound 0.1 µM, first compound 0.001 µM): 18% | viability, T/C (second compound 0.1 µM, first compound 0.00316 µM): 8.67% | viability, T/C (second compound 0.1 µM, first compound 0.01 µM): 2.97% | viability, T/C [1]: 1.31% | viability, T/C (second compound 0.316 µM, first compound 0.0001 µM): 100% | viability, T/C (second compound 0.316 µM, first compound 0.000316 µM): 99.7% | viability, T/C (second compound 0.316 µM, first compound 0.001 µM): 21.9% | viability, T/C (second compound 0.316 µM, first compound 0.00316 µM): 9% | viability, T/C (second compound 0.316 µM, first compound 0.01 µM): 3.1% | viability, T/C [2]: 1.46% | viability, T/C (second compound 1 µM, first compound 0.0001 µM): 111% | viability, T/C (second compound 1 µM, first compound 0.000316 µM): 86.7% | viability, T/C (second compound 1 µM, first compound 0.001 µM): 17.4% | viability, T/C (second compound 1 µM, first compound 0.00316 µM): 7.6% | viability, T/C (second compound 1 µM, first compound 0.01 µM): 4.82% | viability, T/C [3]: 1.76% | viability, T/C (second compound 3.16 µM, first compound 0.0001 µM): 90.9% | viability, T/C (second compound 3.16 µM, first compound 0.000316 µM): 65.8% | viability, T/C (second compound 3.16 µM, first compound 0.001 µM): 11.9% | viability, T/C (second compound 3.16 µM, first compound 0.00316 µM): 9.32% | viability, T/C (second compound 3.16 µM, first compound 0.01 µM): 2.47% | viability, T/C [4]: 1.47% | viability, T/C (second compound 10 µM, first compound 0.0001 µM): 53.6% | viability, T/C (second compound 10 µM, first compound 0.000316 µM): 9.73% | viability, T/C (second compound 10 µM, first compound 0.001 µM): 3.83% | viability, T/C (second compound 10 µM, first compound 0.00316 µM): 4.23% | viability, T/C (second compound 10 µM, first compound 0.01 µM): 0.78% | viability, T/C [5]: 0.43%

COc1cc(Nc2ncc3c(n2)-c2ccc(Cl)cc2C(c2c(F)cccc2OC)=NC3)ccc1C(=O)O + C=CC(=O)N1CCN(c2nc(=O)n(-c3c(C)ccnc3C(C)C)c3nc(-c4c(O)cccc4F)c(F)cc23)C(C)C1
IC50 (second compound 0.1 µM): < 31.6 nM | IC50 (second compound 0.316 µM): < 31.6 nM | IC50 (second compound 1 µM): < 31.6 nM | IC50 (second compound 3.16 µM): < 31.6 nM | IC50 (second compound 10 µM): < 31.6 nM | viability, T/C [1]: 25.1% | viability, T/C (second compound 0.1 µM, first compound 0.316 µM): 22.8% | viability, T/C (second compound 0.1 µM, first compound 1 µM): 34% | viability, T/C (second compound 0.1 µM, first compound 3.16 µM): 50.2% | viability, T/C (second compound 0.1 µM, first compound 10 µM): 50.6% | viability, T/C [2]: 28.5% | viability, T/C (second compound 0.316 µM, first compound 0.1 µM): 29.5% | viability, T/C (second compound 0.316 µM, first compound 0.316 µM): 32.6% | viability, T/C (second compound 0.316 µM, first compound 1 µM): 38.1% | viability, T/C (second compound 0.316 µM, first compound 3.16 µM): 46.8% | viability, T/C (second compound 0.316 µM, first compound 10 µM): 49.2% | viability, T/C [3]: 23.2% | viability, T/C (second compound 1 µM, first compound 0.1 µM): 23.8% | viability, T/C (second compound 1 µM, first compound 0.316 µM): 32.7% | viability, T/C (second compound 1 µM, first compound 1 µM): 38.5% | viability, T/C (second compound 1 µM, first compound 3.16 µM): 50.1% | viability, T/C (second compound 1 µM, first compound 10 µM): 46.7% | viability, T/C [4]: 29.2% | viability, T/C (second compound 3.16 µM, first compound 0.1 µM): 30.8% | viability, T/C (second compound 3.16 µM, first compound 0.316 µM): 32.8% | viability, T/C (second compound 3.16 µM, first compound 1 µM): 36.9% | viability, T/C (second compound 3.16 µM, first compound 3.16 µM): 43% | viability, T/C (second compound 3.16 µM, first compound 10 µM): 35.7% | viability, T/C [5]: 20.7% | viability, T/C (second compound 10 µM, first compound 0.1 µM): 29.2% | viability, T/C (second compound 10 µM, first compound 0.316 µM): 21.1% | viability, T/C (second compound 10 µM, first compound 1 µM): 27.9% | viability, T/C (second compound 10 µM, first compound 3.16 µM): 27.7% | viability, T/C (second compound 10 µM, first compound 10 µM): 20.7%
